In brackets after ≈: the same amount, converted by molar mass. Values belong to the compound of their own block, whether it stands above or below them. Activity calls are given as the source filed them. No cut-off for these calls is given here.
Key:
JAK1/TYK2 = JAK1/TYK2 (Homo sapiens, UniProt P23458+P29597); assay type: cell-based, M07E
Description: Inhibition of JAK1/TYK2 in human M07E cells assessed as reduction of IFN alpha stimulated STAT phosphorylation preincubated for 30 mins followed by IFN alpha stimulation and measured after 15 mins by flow cytometry method

[1] = Lipophilicity, log D of the compound; assay type: physicochemical; conditions: octanol/water
JAK3/JAK1 [2] = target: T1, JAK3/JAK1 (Homo sapiens, UniProt P23458+P52333); assay type: tissue-based, Blood
T1 sequence (P23458 whole entry, one chain of several): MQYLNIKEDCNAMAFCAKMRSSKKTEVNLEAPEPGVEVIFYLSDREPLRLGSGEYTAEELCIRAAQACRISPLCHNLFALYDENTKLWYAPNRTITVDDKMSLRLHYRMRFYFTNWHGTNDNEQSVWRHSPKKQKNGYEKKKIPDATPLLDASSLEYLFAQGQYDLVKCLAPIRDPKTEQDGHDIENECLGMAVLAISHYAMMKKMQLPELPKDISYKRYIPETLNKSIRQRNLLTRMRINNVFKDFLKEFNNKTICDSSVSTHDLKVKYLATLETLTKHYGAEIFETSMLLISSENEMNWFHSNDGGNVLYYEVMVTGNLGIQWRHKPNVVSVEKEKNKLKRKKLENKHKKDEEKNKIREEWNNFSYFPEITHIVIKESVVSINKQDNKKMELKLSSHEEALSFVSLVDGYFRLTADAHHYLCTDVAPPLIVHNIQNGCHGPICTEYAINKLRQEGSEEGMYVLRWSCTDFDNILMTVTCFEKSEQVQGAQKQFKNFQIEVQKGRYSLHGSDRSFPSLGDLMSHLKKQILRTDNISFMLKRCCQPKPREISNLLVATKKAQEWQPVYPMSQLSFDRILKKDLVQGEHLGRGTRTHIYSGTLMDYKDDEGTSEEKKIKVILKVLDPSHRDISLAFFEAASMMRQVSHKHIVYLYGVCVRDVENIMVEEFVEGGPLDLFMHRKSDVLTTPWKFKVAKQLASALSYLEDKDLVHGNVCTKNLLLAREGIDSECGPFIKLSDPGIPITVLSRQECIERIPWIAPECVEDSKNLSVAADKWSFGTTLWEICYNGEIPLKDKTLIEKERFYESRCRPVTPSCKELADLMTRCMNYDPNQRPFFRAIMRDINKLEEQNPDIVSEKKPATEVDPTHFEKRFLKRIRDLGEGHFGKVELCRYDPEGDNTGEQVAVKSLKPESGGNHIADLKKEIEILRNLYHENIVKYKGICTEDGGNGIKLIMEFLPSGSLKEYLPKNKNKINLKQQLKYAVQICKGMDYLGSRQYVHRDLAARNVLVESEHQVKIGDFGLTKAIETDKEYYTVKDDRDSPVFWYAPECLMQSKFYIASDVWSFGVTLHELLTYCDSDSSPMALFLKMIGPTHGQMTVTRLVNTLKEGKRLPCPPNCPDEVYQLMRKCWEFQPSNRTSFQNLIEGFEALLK
Description: Inhibition of JAK1/JAK3 in human blood assessed as reduction of IL-2 stimulated STAT phosphorylation preincubated for 30 mins followed by IL-2 stimulation and measured after 15 mins by flow cytometry method

in vitro = conditions: human, liver microsomes
Description: Microsomal stability in human liver microsomes assessed as intrinsic clearance

JAK3/JAK1 [3] = target: T1, JAK3/JAK1; assay type: cell-based, M07E
Description: Inhibition of JAK1/JAK3 in human M07E cells assessed as reduction of IL-15 stimulated STAT phosphorylation preincubated for 30 mins followed by IL-15 stimulation and measured after 15 mins by flow cytometry analysis

[4] = target: Tyrosine-protein kinase JAK1 (Homo sapiens, UniProt P23458)
Chain of Tyrosine-protein kinase JAK1 (P23458 whole entry): as the sequence (P23458 whole entry, one chain of several) above

[5] = target: T2, Tyrosine-protein kinase JAK3 (Homo sapiens, UniProt P52333)
T2 sequence (P52333 whole entry): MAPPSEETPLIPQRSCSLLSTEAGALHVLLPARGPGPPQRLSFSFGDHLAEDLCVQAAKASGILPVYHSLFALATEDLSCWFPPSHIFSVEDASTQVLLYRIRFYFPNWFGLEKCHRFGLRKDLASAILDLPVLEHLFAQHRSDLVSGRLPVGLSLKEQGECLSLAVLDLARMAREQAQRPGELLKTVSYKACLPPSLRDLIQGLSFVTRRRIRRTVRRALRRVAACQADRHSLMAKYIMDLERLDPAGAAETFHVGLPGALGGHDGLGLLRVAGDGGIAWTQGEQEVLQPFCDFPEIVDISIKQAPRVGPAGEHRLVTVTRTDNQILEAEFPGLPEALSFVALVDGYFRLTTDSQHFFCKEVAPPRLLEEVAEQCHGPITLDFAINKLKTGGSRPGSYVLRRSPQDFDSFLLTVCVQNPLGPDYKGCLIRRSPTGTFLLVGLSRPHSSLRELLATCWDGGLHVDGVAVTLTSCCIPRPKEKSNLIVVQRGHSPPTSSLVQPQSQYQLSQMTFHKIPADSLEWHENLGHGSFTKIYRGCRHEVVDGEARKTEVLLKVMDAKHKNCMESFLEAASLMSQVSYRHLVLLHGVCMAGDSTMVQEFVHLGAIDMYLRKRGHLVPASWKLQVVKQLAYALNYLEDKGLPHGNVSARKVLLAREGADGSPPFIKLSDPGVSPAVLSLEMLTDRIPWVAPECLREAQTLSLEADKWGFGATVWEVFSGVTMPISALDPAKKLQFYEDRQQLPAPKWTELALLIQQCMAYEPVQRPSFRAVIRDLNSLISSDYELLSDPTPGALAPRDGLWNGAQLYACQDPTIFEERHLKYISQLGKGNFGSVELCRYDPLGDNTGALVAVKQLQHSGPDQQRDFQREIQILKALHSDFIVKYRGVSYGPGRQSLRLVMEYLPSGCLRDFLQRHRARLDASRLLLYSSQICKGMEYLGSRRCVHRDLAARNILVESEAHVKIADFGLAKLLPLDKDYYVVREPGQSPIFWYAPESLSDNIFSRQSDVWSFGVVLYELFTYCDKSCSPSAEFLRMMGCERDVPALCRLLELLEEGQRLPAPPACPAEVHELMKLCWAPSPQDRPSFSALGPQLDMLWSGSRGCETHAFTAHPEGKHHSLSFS

[6] = target: Non-receptor tyrosine-protein kinase TYK2 (Homo sapiens, UniProt P29597)
Chain of Non-receptor tyrosine-protein kinase TYK2 (P29597 whole entry): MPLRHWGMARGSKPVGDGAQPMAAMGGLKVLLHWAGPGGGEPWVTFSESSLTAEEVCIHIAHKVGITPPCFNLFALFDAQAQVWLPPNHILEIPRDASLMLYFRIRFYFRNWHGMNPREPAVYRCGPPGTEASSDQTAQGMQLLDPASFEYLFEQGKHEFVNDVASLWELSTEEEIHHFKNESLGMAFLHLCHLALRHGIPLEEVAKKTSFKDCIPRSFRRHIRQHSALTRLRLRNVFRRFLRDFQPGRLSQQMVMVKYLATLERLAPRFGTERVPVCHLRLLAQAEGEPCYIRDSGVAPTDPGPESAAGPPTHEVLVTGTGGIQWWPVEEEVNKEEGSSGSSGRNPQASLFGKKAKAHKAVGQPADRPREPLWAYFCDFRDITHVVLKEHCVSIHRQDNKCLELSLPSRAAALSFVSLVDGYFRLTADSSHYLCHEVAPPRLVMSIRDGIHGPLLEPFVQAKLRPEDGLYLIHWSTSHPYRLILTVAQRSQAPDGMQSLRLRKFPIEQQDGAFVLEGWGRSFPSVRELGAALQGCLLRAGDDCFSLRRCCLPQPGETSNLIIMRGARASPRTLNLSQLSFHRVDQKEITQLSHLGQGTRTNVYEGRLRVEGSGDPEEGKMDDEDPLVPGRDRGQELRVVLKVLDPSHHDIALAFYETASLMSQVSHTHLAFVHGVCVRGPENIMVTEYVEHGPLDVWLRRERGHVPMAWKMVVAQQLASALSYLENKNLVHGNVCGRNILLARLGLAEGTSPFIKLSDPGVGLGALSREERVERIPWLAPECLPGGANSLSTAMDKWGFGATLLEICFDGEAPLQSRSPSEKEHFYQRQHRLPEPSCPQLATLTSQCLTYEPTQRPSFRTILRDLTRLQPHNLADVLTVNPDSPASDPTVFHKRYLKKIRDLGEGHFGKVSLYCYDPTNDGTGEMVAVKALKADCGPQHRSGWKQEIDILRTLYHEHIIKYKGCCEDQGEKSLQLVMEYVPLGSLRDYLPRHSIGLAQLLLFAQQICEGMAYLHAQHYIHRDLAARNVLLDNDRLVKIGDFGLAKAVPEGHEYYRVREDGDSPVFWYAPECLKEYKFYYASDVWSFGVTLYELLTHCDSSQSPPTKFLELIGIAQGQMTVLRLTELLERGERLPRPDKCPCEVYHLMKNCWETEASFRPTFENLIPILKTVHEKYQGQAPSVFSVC
Description: Inhibition of TYK2 (unknown origin) by caliper technology

[7] = target: Tyrosine-protein kinase JAK2 (Homo sapiens, UniProt O60674)
Chain of Tyrosine-protein kinase JAK2 (O60674 whole entry): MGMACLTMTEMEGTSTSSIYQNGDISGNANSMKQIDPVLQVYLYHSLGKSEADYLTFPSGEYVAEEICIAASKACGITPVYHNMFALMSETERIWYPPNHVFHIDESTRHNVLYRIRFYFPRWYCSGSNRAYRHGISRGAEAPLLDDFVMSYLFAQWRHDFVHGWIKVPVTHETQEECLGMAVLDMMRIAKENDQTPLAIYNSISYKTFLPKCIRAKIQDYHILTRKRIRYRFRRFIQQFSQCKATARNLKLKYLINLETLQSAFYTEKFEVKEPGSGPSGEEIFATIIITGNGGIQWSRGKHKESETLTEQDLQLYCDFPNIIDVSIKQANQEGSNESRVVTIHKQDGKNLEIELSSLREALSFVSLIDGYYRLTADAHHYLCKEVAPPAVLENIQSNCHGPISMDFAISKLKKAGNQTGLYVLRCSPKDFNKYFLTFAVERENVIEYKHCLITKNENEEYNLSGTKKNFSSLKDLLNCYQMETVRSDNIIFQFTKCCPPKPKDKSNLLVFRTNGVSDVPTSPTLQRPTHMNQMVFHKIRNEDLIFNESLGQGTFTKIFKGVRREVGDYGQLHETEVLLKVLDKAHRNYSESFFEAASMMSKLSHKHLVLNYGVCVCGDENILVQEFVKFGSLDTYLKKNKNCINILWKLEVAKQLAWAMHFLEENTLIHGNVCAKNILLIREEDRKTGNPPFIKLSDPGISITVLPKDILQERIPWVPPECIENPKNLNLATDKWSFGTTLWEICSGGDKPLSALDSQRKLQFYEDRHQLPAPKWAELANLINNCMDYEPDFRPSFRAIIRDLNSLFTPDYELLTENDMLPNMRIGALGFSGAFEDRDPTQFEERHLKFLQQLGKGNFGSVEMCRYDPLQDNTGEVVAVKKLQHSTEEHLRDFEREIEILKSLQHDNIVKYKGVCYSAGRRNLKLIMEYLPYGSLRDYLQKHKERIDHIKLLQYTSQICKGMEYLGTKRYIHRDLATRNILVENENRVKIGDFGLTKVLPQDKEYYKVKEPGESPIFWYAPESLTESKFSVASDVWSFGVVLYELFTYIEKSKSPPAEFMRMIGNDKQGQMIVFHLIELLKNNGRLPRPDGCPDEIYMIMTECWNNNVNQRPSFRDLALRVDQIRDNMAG

[8] = Clearance in minipig; assay type: ADME, Sus scrofa domesticus; conditions: pig, in vivo
[9] = Aqueous solubility of the compound at pH 6.8; assay type: physicochemical
[10] = target: T3, Signal transducer and activator of transcription 6 (Homo sapiens) (UniProt P42226); test: Inhibition of IL4/IL13 induced STAT6 phosphorylation in topically administered human skin assessed as reduction in phosphorylated STAT6 level preincubated with compound overnight followed by IL4/1L13 stimulation and measured after 3 hrs by Western blot analysis; assay type: tissue-based; conditions: Skin of body, route top, time 11.0 hrs
T3 sequence (whole entry): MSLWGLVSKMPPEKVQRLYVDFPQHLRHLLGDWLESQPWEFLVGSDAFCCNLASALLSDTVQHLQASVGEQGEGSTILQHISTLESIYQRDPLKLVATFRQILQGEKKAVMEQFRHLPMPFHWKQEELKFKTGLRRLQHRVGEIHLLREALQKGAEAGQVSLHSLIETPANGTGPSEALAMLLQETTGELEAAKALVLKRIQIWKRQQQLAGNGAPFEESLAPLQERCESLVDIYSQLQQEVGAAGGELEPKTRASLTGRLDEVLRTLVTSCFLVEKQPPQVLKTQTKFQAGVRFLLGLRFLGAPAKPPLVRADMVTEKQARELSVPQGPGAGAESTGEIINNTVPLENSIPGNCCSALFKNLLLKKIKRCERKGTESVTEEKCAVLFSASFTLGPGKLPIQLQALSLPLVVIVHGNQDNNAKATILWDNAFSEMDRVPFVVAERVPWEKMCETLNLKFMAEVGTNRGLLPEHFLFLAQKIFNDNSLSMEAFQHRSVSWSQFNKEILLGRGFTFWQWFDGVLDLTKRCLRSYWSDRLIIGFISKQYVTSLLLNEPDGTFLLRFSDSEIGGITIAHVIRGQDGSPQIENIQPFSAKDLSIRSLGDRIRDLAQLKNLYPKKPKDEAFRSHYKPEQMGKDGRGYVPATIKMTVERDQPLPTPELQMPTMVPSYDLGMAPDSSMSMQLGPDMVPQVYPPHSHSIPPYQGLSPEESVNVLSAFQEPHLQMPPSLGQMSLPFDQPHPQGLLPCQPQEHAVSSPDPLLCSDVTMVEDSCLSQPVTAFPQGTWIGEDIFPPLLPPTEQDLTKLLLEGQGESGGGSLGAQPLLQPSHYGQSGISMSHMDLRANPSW

Homo sapiens [11] = test: Inhibition of IL4/IL13 stimulated TARC gene expression in human fresh skin epidermal explant Franz cell model administered topically to human skin epidermis preincubated with compound overnight followed by IL4/IL13 stimulation and measured after 24 hrs by qRT-PCR analysis; assay type: functional, tissue-based; conditions: Skin of body, route top, time 32.0 hrs
[12] = Plasma protein binding in human; assay type: ADME, cell-free; conditions: read-out: PPB
Homo sapiens [13] = test: Inhibition of IL4/IL13 stimulated MMP12 gene expression in human fresh skin epidermal explant Franz cell model administered topically to human skin epidermis preincubated with compound overnight followed by IL4/IL13 stimulation and measured after 24 hrs by qRT-PCR analysis; assay type: functional, tissue-based; conditions: Skin of body, route top, time 32.0 hrs
Homo sapiens [14] = test: Inhibition of IL4/IL13 induced MMP12 gene expression in topically administered human skin preincubated with compound overnight followed by IL4/IL13 stimulation and measured after 3 hrs by qRT-PCR analysis; assay type: functional, tissue-based; conditions: Skin of body, route top, time 11.0 hrs
[15] = Drug concentration in topically administered human skin epidermis by MALDI-IMS analysis; assay type: ADME, tissue-based; conditions: topical_or_ocular, route top, read-out: Drug uptake
[16] = Microsomal stability in rat liver microsomes assessed as intrinsic clearance; assay type: ADME, Microsome
[17] = target: T4, Janus Kinase (JAK) (Homo sapiens) (UniProt P52333+P23458+O60674+P29597); test: Inhibition of JAK in human skin assessed as reduction in TARC release at 1 uM incubated for 24 hrs in the presence of IL4/IL13 by MSD analysis relative to control; assay type: tissue-based; conditions: Skin of body
T4 sequence (O60674 whole entry, looked up, one chain of several): as the sequence (O60674 whole entry) above
T4 sequence (P23458 whole entry, looked up, one chain of several): as the sequence (P23458 whole entry, one chain of several) above
T4 sequence (P29597 whole entry, looked up, one chain of several): as the sequence (P29597 whole entry) above

[18] = Half life in rat; assay type: ADME; conditions: in vivo
[19] = Microsomal stability in minipig liver microsomes assessed as intrinsic clearance; assay type: ADME, Sus scrofa domesticus, Microsome; conditions: pig
[20] = Drug excretion in iv dosed bile duct cannulated rat urine assessed as unchanged drug; assay type: ADME, organism-based; conditions: read-out: Drug excretion
[21] = target: Glycogen synthase kinase-3 beta (Homo sapiens, UniProt P49841); test: Inhibition of GSK3B (unknown origin) by caliper microfluidic mobility shift technology
Chain of Glycogen synthase kinase-3 beta (P49841 whole entry): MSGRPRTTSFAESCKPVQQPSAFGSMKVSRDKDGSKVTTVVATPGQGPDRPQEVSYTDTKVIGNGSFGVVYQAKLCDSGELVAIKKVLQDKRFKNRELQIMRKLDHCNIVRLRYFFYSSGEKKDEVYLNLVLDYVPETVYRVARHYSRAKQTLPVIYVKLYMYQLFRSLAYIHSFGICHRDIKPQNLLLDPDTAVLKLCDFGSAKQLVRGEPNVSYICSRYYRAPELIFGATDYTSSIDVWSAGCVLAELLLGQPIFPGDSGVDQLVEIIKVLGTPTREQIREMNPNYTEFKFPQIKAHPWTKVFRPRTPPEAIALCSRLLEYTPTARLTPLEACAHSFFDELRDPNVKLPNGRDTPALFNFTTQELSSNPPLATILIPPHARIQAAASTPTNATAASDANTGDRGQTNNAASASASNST

[22] = Drug exposure in topically dosed minipig and measured for 14 days; assay type: ADME, organism-based, Sus scrofa domesticus; conditions: pig, in vivo, topical_or_ocular, 336 h; route top, time 14 day
[23] = Drug uptake in topically administered human skin at 1 mm of depth by MALDI-IMS analysis; assay type: ADME, tissue-based, Skin of body; conditions: topical or ocular, route top, read-out: Drug uptake
[24] = Half life in minipig; assay type: ADME, Sus scrofa domesticus; conditions: pig, in vivo
[25] = Metabolic stability in minipig hepatocytes assessed as intrinsic clearance; assay type: ADME, cell-based, Sus scrofa domesticus, Hepatocyte; conditions: pig
Homo sapiens [26] = test: Inhibition of IL4/IL13 stimulated Eotaxin 3 gene expression in human fresh skin epidermal explant Franz cell model administered topically to human skin epidermis preincubated with compound overnight followed by IL4/IL13 stimulation and measured after 24 hrs by qRT-PCR analysis; assay type: functional, tissue-based; conditions: Skin of body, route top, time 32.0 hrs
[27] = Clearance in rat; assay type: ADME; conditions: in vivo
[28] = Metabolic stability in human hepatocytes assessed as intrinsic clearance; assay type: ADME, cell-based, Hepatocyte
[29] = Metabolic stability in rat hepatocytes assessed as intrinsic clearance; assay type: ADME, cell-based, Hepatocyte
[30] = Drug excretion in iv dosed bile duct cannulated rat bile assessed as unchanged drug; assay type: ADME, organism-based; conditions: read-out: Drug excretion
[31] = […] in mouse 3T3 cells by neutral red uptake assay; assay type: toxicity, cell-based; conditions: nih3t3
[32] = target: Mitogen-activated protein kinase kinase kinase kinase 4 (Homo sapiens, UniProt O95819); test: Inhibition of MAP4K4 (unknown origin) by caliper microfluidic mobility shift technology
[33] = target: T4, Janus Kinase (JAK) (Homo sapiens); test: Inhibition of JAK in human skin assessed as reduction in TARC release at 10 uM incubated for 24 hrs in the presence of IL4/IL13 by MSD analysis relative to control; assay type: tissue-based; conditions: Skin of body
[34] = Drug uptake in topically administered human skin at 0.5 mm of depth by MALDI-IMS analysis; assay type: ADME, tissue-based, Skin of body; conditions: topical or ocular, route top, read-out: Drug uptake

Chain of JAK1/TYK2 (P23458 whole entry): as the sequence (P23458 whole entry, one chain of several) above
Chain of JAK1/TYK2 (P29597 whole entry): as the sequence (P29597 whole entry) above

SMILES: COc1ccccc1Nc1cc(Nc2ccccn2)ncc1C(N)=O
IC50 (JAK1/TYK2): 31 nM
logD [1]: 3.4
IC50 (JAK3/JAK1 [2]): 340 nM
microsomal CLint (in vitro): 210 µL/min/mg
IC50 (JAK3/JAK1 [3]): 45 nM
IC50 [4]: 9 nM
IC50 [5]: 11 nM
IC50 [6]: 6 nM
IC50 [7]: 8 nM

SMILES: Cc1cccc(Nc2cc(Nc3ccccc3Cl)c(C(N)=O)cn2)n1
CL [8]: 52 mL/min/g
solubility [9]: 0.2 µM (≈ 0.0708 µg/mL)
inhibition [10]: Active
IC50 (JAK1/TYK2): 85 nM
inhibition (Homo sapiens [11]): Active
fraction unbound [12]: < 0.01
inhibition (Homo sapiens [13]): Active
inhibition (Homo sapiens [14]): Active
concentration [15]: 13 µM
CLH [16]: 204 mL·min/g
logD [1]: 4.3
IC50 (JAK3/JAK1 [2]): 2350 nM
inhibition [17]: 74%
half-life [18]: 30 min
CLH [19]: 67 mL·min/g
dose excreted [20]: 1.3%
microsomal CLint (in vitro): 166 µL/min/mg
IC50 (JAK3/JAK1 [3]): 54 nM
IC50 [21]: 380 nM
Drug uptake [22]: < 1 nM
IC50 [4]: 50 nM
concentration at 1000 µM [23]: 1.68 µM
half-life [24]: 60 min
CLH [25]: 38 mL·min/g
inhibition (Homo sapiens [26]): Active
clearance [27]: 82 mL/min/kg
CLH [28]: 47 mL·min/g
CLH [29]: 94 mL·min/g
dose excreted [30]: < 1%
IC50 [5]: 59 nM
Activity [31]: Non-Toxic
IC50 [6]: 50 nM
IC50 [32]: 110 nM
IC50 [7]: 48 nM
inhibition [33]: 100%
concentration at 500 µM [34]: 3.51 µM

SMILES: CC[C@@H]1CN(C(=O)NCC(F)(F)F)C[C@@H]1c1cnc2cnc3[nH]ccc3n12 [UPADACITINIB]
microsomal CLint (in vitro): < 25 µL/min/mg

SMILES: COc1ccccc1Nc1cc(Nc2cccc(C)n2)ncc1C(N)=O
IC50 (JAK1/TYK2): 33 nM
logD [1]: 3.7
IC50 (JAK3/JAK1 [2]): 994 nM
microsomal CLint (in vitro): 179 µL/min/mg
IC50 (JAK3/JAK1 [3]): 85 nM
IC50 [4]: 14 nM
IC50 [5]: 18 nM
IC50 [6]: 15 nM
IC50 [7]: 14 nM

SMILES: Cn1cc(Nc2nccc(N3CC4CCC(C3)N4C(=O)[C@@H]3CC3(F)F)n2)cn1
microsomal CLint (in vitro): < 25 µL/min/mg

SMILES: C[C@H]1CN(C(=O)CC#N)[C@]12CCN(c1ncnc3[nH]ccc13)C2 [DELGOCITINIB]
microsomal CLint (in vitro): < 25 µL/min/mg

Next, values leading:

microsomal CLint (in vitro): 40 µL/min/mg
SMILES: N#CC[C@H](C1CCCC1)n1cc(-c2ncnc3[nH]ccc23)cn1 [RUXOLITINIB]

IC50 (JAK1/TYK2): 51 nM
logD [1]: 2.4
IC50 (JAK3/JAK1 [2]): 486 nM
microsomal CLint (in vitro): 127 µL/min/mg
IC50 (JAK3/JAK1 [3]): 66 nM
IC50 [4]: 29 nM
IC50 [5]: 39 nM
IC50 [6]: 19 nM
IC50 [7]: 29 nM
SMILES: COc1ccccc1Nc1cc(Nc2cccnn2)ncc1C(N)=O

IC50 (JAK1/TYK2): 84 nM
fraction unbound [12]: < 0.01
logD [1]: 3.7
IC50 (JAK3/JAK1 [2]): 564 nM
microsomal CLint (in vitro): 227 µL/min/mg
IC50 (JAK3/JAK1 [3]): 41 nM
IC50 [4]: 22 nM
IC50 [5]: 10 nM
IC50 [6]: 11 nM
IC50 [7]: 27 nM
SMILES: NC(=O)c1cnc(Nc2ccccn2)cc1Nc1ccccc1Cl

microsomal CLint (in vitro): < 25 µL/min/mg
SMILES: CCS(=O)(=O)N1CC(CC#N)(n2cc(-c3ncnc4[nH]ccc34)cn2)C1 [BARICITINIB]

Reference: ChEMBL document CHEMBL5316322, “Discovery and Characterization of the Topical Soft JAK Inhibitor CEE321 for Atopic Dermatitis” (J Med Chem, 2023)
